# Assay results taken from US7989466B2, “Methods to inhibit or augment an inflammatory response” (Cambridge Enterprise Limited, priority 1999, dated 2011).
# Positions of bridges follow the written chain, without caps; N, C: chain ends. Non-standard residues stand in square brackets, D forms with d. Residues, ends and D or L forms follow the SMILES beside them.
# Experiments:
# CD4 T cells = details: 5 ng
# [1] = system: fMLP induced THP-1 migration; assay: THP-1 chemotaxis assay, fMLP as chemoattractant; type: cell-based; details: Homo sapiens, fMLP is not a chemokine, read-out: ED50, fMLP chemotaxis assay
# Procedure: To determine whether an agent inhibits a chemokine-induced activity, such as macrophage recruitment, varying amounts of the agent are mixed with cells in the presence of a known chemoattractant. For example, a range of known concentrations of an agent, e.g., a chemokine peptide, is incubated with a defined number (e.g., 10^4-10^6) of human THP-1 monocyte cells in individual wells of the top compartment of a trans-well plate. Chemokine (such as MCP-1, MIP1α, IL8 or SDF-1α), at a concentration known to cause significant migration of THP-1 cells in the trans-well migration assay, is placed in the lower compartment (FIG. 1). Cells are then incubated at 37° C. for a period sufficient to allow migration, e.g., 4 hours. After incubation, the cells are gently removed from the top of the filter with a pipette, 20 μl of 20 mM EDTA in simple PBS is added into each top well, and incubated for 20 minutes at 4° C. The filter is carefully flushed with media using a gentle flow, and removed. A standard curve consisting of a two-fold dilution series of THP-1 cells (in 29 μl) is prepared to accurately quantify the number of cells that have migrated. […] Absorbance of converted dye is measured at a wavelength of 595 nm using an ELISA plate reader. The number of migrated cells in each well is then determined by interpolation of the standard curve (see also Imai et al., J. Biol. Chem., 272, 15036 (1997)). […]
# HIV (IIIb) = assay: HIV infectivity of Jurkat T-cells, p24gag immunofluorescence; type: cell-based; details: 100 μM peptide (SDF1α 100 ng/ml), about 48 hours after infection
# Procedure: (a) HIV (IIIb) replication in cultures of Jurkat T-cells was estimated by measuring the supernatant reverse transcriptase activity two weeks after infection. Peptide 2 and peptide 3 were at 100 μM final concentration and SDF-1α was added at 100 ng/ml final concentration 1 hour prior to exposure to virus. Values are mean±SEM from 12 wells, expressed as the percentage of the reverse transcriptase activity in the supernatant from the control wells. The experiment shown is typical of six separate experiments. (b) HIV (IIIb) infectivity of Jurkat T-cells was estimated by staining cells treated identically to those in (a) for p24^gag expression. Values are mean±S.D. percentage of cells stained for p24gag averaged from 12 fields of view from each of two separate wells. (c) HIV (MN) infectivity of THP-1 cells measured as in (b). […] Both fields of view contain 40-50 cells (assessed by Hoeschst 33345 staining viewed under UV illumination conditions).
# Jurkat cells following HIV infection were attached to 8-well chamber slides (Becton-Dickinson) by spinning the slides using a plate rotor in a Labofuge centrifuge (Haeraeus) at 3,000×g for 5 minutes. […] A threshold was then applied to each image which was the lowest threshold that detected <1% of the pixels of an image of uninfected cells stained under identical conditions. The number of objects exceeding this threshold in each field of view were counted. […]
molecule,measurement,setting,value
CC[C@@H](C)[C@H]1NC(=O)[C@@H](CCC(N)=O)NC(=O)[C@H](N)CSSC[C@H](C(N)=O)NC(=O)[C@@H](CC(C)C)NC(=O)[C@@H](CC(=O)O)NC(=O)[C@H]2CCCN2C(=O)[C@@H](CCCCN)NC(=O)[C@@H](CCC(N)=O)NC(=O)[C@@H](CCCCN)NC(=O)[C@@H](Cc2c[nH]c3ccccc23)NC1=O (H-[dC][dQ][dI][dW][dK][dQ][dK][dP][dD][dL][dC]-NH2; disulfide 1-11; N-terminus assumed),reduction of ConA proliferation of CD4 T cells,CD4 T cells,< 3%
"C=CCCCCCCCCC(=O)N[C@H]1CCC(=O)NC1=O [A-I (NR58.4), [3S]-3-(undec-10-enoylamino)piperidine-2,6-dione]",EC50,[1],> 100 µM
EICADPKQKWVQ [peptide 3(1-12)[MCP-1]],"inhibition of viral infectivity, p24gag staining, Jurkat T-cells",HIV (IIIb),ineffective
